“And” between values parts separate entries of the source, which are not always exact repeats. Identical values can stand only once. Like-named read-outs stand apart in the source and are kept apart here.
Columns and labels:
[1] = Aerosol particle size determination, 10-stage MOUDI at 30 L/min with USP throat; assay type: physicochemical; conditions: for MMAD / Material Balance / Throat Deposition / Wall Losses / Throat Depositions: 5 mg/sec
Method: Aerosol particle size was determined using the 10-stage MOUDI operated at 30 L/min. The sample foils were placed in beakers, 10 mL of sample solvent was added, and the beakers swirled thoroughly. For the USP throat, 10 mL of sample solvent was added and shaken thoroughly. Wall losses were assessed by washing the MOUDI walls with a Kimwipe dipped in sample solvent. The same 10 mL of mobile phase was used to wash the walls of all the stages. The collected samples were analyzed.
(§1) Aerosol particle size was determined using the 10-stage MOUDI operated at 30 L/min. […] For the USP throat, 5 mL of sample solvent was added and shaken thoroughly. Wall losses were assessed by washing the MOUDI walls with a Kimwipe dipped in sample solvent. The same sample solvent was used to wash the walls of all the stages. The collected samples were analyzed using the assay method.
Aerosol particle size was determined using the 10-stage MOUDI operated at 30 L/min. For MOUDI runs 1-4, the sample foils were placed in beakers, 5 mL of sample solvent was added, and the beakers swirled thoroughly. For the USP throat, 5 mL of sample solvent was added and shaken thoroughly. Wall losses were assessed by washing the MOUDI walls with a Kimwipe dipped in sample solvent. The same 5 mL of sample solvent was used to wash the walls of all the stages. The collected samples were analyzed using the assay method. For MOUDI runs 5-9, the procedure was the same as above except distilled deionized water was used in place of the sample solvent. This was done to allow for simultaneous PG particle size analysis. Two actuations were used for all MOUDI runs with the exception of MOUDI runs 1 and 7.
as §1, with “10” for “5”
as §1

[2] = Emitted dose and fine particle fraction; assay type: physicochemical; conditions: formulation % w/v: buprenorphine 0.2, buspirone 2.0, cyclobenzaprine 2.0, triazolam 0.1, zolpidem 0.2; for Avg. Emitted Dose per Actuation: 10 second actuations, average of n=3-5 runs; for Avg. FPF: fine particle fraction = percent of total dose collected less than 5.6 microns, n=3-5 runs
[3] = 5 mg/sec
Method: Sham determinations were performed for each set of experiments to determine an “expected” amount of active per capillary aerosol generator (CAG) activation. This was performed by running the equipment at a target resistance of 0.2 ohms, which pumped out the solution of buspirone in PG as a liquid instead of an aerosol. The result was collected on a Kimwipe which was placed into sample solvent and sonicated. This process was performed in triplicate. Two solution concentrations of about 0.5% and about 2% of buspirone in PG were prepared.
(§2) Dose capture determinations were conducted (Table 1). For dose capture runs 1-6, the device was actuated once, the aerosol collected in acidified water, diluted to 40 mL. Runs 7-12 were performed as above, except distilled de-ionized water was used instead of acidified water. For runs 13-33, the device was actuated 4 times, the aerosol was collected in 8 mL of sample solvent, and analyzed for buspirone and degradation products using the “stability indicating” assay. Intact buspirone was calculated. The extent of degradation was evaluated by assuming that the degradation products had similar extinction coefficients as the parent at the wavelength of interest.
The result was collected on a Kimwipe, placed into sample solvent and sonicated. This process was performed in triplicate and was analyzed with other analytical samples.
(§3) Dose capture determinations were conducted.
Sham determinations were performed for each set of experiments to determine an “expected” amount of active per CAG activation. […] This was collected on a Kimwipe which was placed into sample solvent and sonicated. The process was performed in triplicate and was analyzed with other analytical samples.
(§4) Dose capture determinations were conducted (Table 6). For dose capture runs 1-3, the device was actuated once, the aerosol collected in 10 mL of sample solvent and analyzed using the “stability indicating” method. Runs 4-9 were performed as above except the device was actuated twice and collected in 10 mL of sample solvent. […] The extent of degradation was evaluated by assuming that the degradation products had similar extinction coefficients as the parent at the wavelength of interest.
Sham determinations were performed for each set of experiments to determine an “expected” amount of active per CAG activation. […] This was collected on a Kimwipe which was placed into sample solvent and sonicated. This process was performed in triplicate and was analyzed with other analytical samples.
(§5) Dose capture determinations were conducted. […] The extent of degradation was evaluated by assuming that the degradation products had similar extinction coefficients as the parent at the wavelength of interest.
Sham determinations were performed for each set of experiments to determine an “expected” amount of active per CAG activation. This was performed by running the equipment at a target resistance of 0.2 ohms. […] This was collected on a Kimwipe which was placed into sample solvent and sonicated. This process was performed in triplicate and was analyzed with other analytical samples.

[4] = 2 % in PG
Method: (§6) Buspirone was dissolved in acidic and basic solutions and heated to 50 degrees Celsius for 1 hour to promote acid and base catalyzed hydrolysis. Buspirone was also subjected to peroxide with heating to 50 degrees Celsius for 1 hour to promote oxidation. As a final stability check, solid buspirone was subjected to heating with a differential scanning calorimeter. Conditions were optimized to produce thermal degradation products by heating to 350 degrees Celsius.
as §2
(§7) After evaluation of the data, it was determined that buspirone should be thermally stressed with a DSC to produce a degradation profile thought to be more representative of buspirone degradation after aerosolization via the CAG. In doing so, thermal degradation products were produced under the conditions stated above. This provided an indication of retention times for potential degradation products of buspirone after aerosolization using the CAG.
(§8) Buprenorphine was subjected to heating with a differential scanning calorimeter.
as §3
(§9) Conditions were optimized to produce thermal degradation products by heating to 350 degrees Celsius.
as §4
(§10) Thermal degradation products were produced under the conditions stated above.
(§11) Conditions were optimized to produce thermal degradation products by heating to 300 degrees Celsius.
as §5

[5] = Degradation determination after aerosolization (stability indicating assay); conditions: zolpidem 0.2% in PG, target resistance 0.600 ohms, runs 5-9
Method: as §6, §2, §7, §8, §3, §9, §4, §10, §11, §5

[6] = buspirone 0.5% in PG, target resistance 0.600 ohms
[7] = buspirone 0.5% in PG, target resistance 0.610 ohms, monohydrochloride
[8] = buspirone 2.0% in PG, target resistance 0.590 ohms
[9] = buspirone 2.0% in PG, target resistance 0.595 ohms
[10] = buspirone 2.0% in PG, target resistance 0.600 ohms, monohydrochloride
[11] = buspirone 2.0% in PG, target resistance 0.605 ohms, runs 11-15, listed as buspirone, monohydrochloride
[12] = buspirone 2.0% in PG, target resistance 0.605 ohms, runs 11-15, monohydrochloride
[13] = buspirone 2.0% in PG, target resistance 0.610 ohms
[14] = cyclobenzaprine 2.0% in PG, target resistance 0.595 ohms, 1 actuation
[15] = triazolam 0.1% in PG, target resistance 0.590 ohms
[16] = triazolam 0.1% in PG, target resistance 0.595 ohms
[17] = triazolam 0.1% in PG, target resistance 0.600 ohms
[18] = triazolam 0.1% in PG, target resistance 0.605 ohms, runs 5-9
[19] = zolpidem 0.2% in PG, target resistance 0.590 ohms, 1 actuation
[20] = zolpidem 0.2% in PG, target resistance 0.600 ohms, 1 actuation

**Q.** With Cl.O=C1CC2(CCCC2)CC(=O)N1CCCCN1CCN(c2ncccn2)CC1 [Buspirone, 8-[4-[4-(2-pyrimidinyl)-1-piperazinyl]butyl]-8-azaspiro[4,5]decane-7,9-dione monohydrochloride] as the molecule, how does the MMAD [1, 6] read?
**A.** 0.31 microns

**Q.** What about the “Material Balance” value [1, 6] of the same molecule?
**A.** 100%

**Q.** What about the “Throat Deposition” value [1, 6] of the same molecule?
**A.** 7%

**Q.** And the “Wall Losses” value [1, 6]?
**A.** 2%

**Q.** And the “Wall Losses” value ([1]; buspirone 0.5% in PG, target resistance 0.610 ohms)?
**A.** 4%

**Q.** What about the MMAD [1, 7] of the same molecule?
**A.** 0.30 microns and 0.47 microns and 0.32 microns and 0.29 microns

**Q.** And the “Throat Deposition” value [1, 7]?
**A.** 10% and 3% and 6% and 4%

**Q.** And the “recovered buspirone found on the throat” value ([1]; buspirone 2.0% in PG, energies approximately 77 J, runs 8 and 10)?
**A.** greater than 40%

**Q.** What about the MMAD [1, 8] of the same molecule?
**A.** 0.54 microns

**Q.** What about the “Material Balance” value [1, 8] of the same molecule?
**A.** 11%

**Q.** What about the “Throat Deposition” value [1, 8] of the same molecule?
**A.** 44%

**Q.** What about the “Wall Losses” value [1, 8] of the same molecule?
**A.** 6%

**Q.** What about the MMAD [1, 9] of the same molecule?
**A.** 0.46 microns

**Q.** What about the “Material Balance” value [1, 9] of the same molecule?
**A.** 91%

**Q.** And the “Throat Deposition” value [1, 9]?
**A.** 44%

**Q.** And the “Wall Losses” value [1, 9]?
**A.** 1%

**Q.** What about the MMAD [1, 10] of the same molecule?
**A.** 0.30 microns and 0.48 microns

**Q.** What about the “Material Balance” value [1, 10] of the same molecule?
**A.** 100% and 98%

**Q.** And the “Wall Losses” value [1, 10]?
**A.** 2% and 4%

**Q.** And the MMAD [1, 11]?
**A.** approximately 0.30 microns

**Q.** What about the “Material Balance” value [1, 11] of the same molecule?
**A.** exceeded 100%

**Q.** And the “Throat Deposition” value [1, 11]?
**A.** less than 5%

**Q.** What about the MMAD [1, 12] of the same molecule?
**A.** 0.31 microns and 0.30 microns and 0.29 microns and 0.32 microns

**Q.** And the “Material Balance” value [1, 12]?
**A.** 105% and 108% and 102% and 107% and 111%

**Q.** And the “Throat Deposition” value [1, 12]?
**A.** 4% and 1% and 3% and 2%

**Q.** And the “Wall Losses” value [1, 12]?
**A.** 4% and 3% and 9%

**Q.** What about the MMAD [1, 13] of the same molecule?
**A.** 0.30 microns

**Q.** What about the “Material Balance” value [1, 13] of the same molecule?
**A.** 98%

**Q.** What about the “Throat Deposition” value [1, 13] of the same molecule?
**A.** 14%

**Q.** What about the “Wall Losses” value [1, 13] of the same molecule?
**A.** 1%

**Q.** And the “Avg. Emitted Dose per Actuation” value [2]?
**A.** 1010.44 µg

**Q.** And the “Avg. FPF” value [2]?
**A.** 91.60 % of Emitted

**Q.** What about the “Dose Capture” value ([3]; buspirone 2.0% in PG, target resistance 0.595 ohms, runs 13-15, mean) of the same molecule?
**A.** 102^1%

**Q.** And the “Dose Capture” value ([3]; buspirone 2.0% in PG, target resistance 0.600 ohms, runs 24-28, mean)?
**A.** 105^3%

**Q.** And the “Dose Capture” value ([3]; buspirone 2.0% in PG, target resistance 0.605 ohms, about 90 J, runs 29-33, mean, listed as buspirone, monohydrochloride)?
**A.** 104%

**Q.** What about the “Dose Capture” value ([3]; buspirone 2.0% in PG, target resistance 0.605 ohms, about 90 J, runs 29-33, mean, monohydrochloride) of the same molecule?
**A.** 104^3%

**Q.** And the “Dose Capture” value ([3]; buspirone 2.0% in PG, target resistance 5.90 ohms, runs 7-9, mean of 3)?
**A.** 9^1%

**Q.** What about the “average degradation of the active” value [4] of the same molecule?
**A.** 0.25%

**Q.** What about the “major degradation peak, share of degradation observed” value [4] of the same molecule?
**A.** approximately 0.09%

**Q.** What about the “other 8 degradation peaks, each” value [4] of the same molecule?
**A.** approximately 0.02%

**Q.** With CN(C)CCC=C1c2ccccc2C=Cc2ccccc21 [Cyclobenzaprine, 3-(5H-Dibenzo[a,d]cyclohepten-5-ylidene)-N,N-dimethyl-1-propanamine] as the molecule, how does the MMAD [1, 14] read?
**A.** 0.330 microns and 0.329 microns and 0.343 microns and 0.333 microns and 0.336 microns and 0.256^2 microns

**Q.** What about the “Material Balance” value [1, 14] of the same molecule?
**A.** 92.04% and 91.03% and 93.48% and 99.10% and 93.99% and 61.98^2%

**Q.** What about the “Throat Depositions” value [1, 14] of the same molecule?
**A.** 3.45% and 3.39% and 5.55% and 2.59% and 3.09% and 4.89^2%

**Q.** What about the “Wall Losses” value [1, 14] of the same molecule?
**A.** 0.81% and 1.12% and 2.33% and 1.98% and 2.26% and 1.99^2%

**Q.** And the “Throat Depositions” value ([1]; cyclobenzaprine 2.0% in PG, target resistance 0.595 ohms, 1 actuation, listed as cyclobenzaprine)?
**A.** less than 4%

**Q.** What about the “average MMAD” value ([1]; cyclobenzaprine 2.0% in PG, target resistance 0.595 ohms, approximately 71 J, runs 1-6 excluding run 3) of the same molecule?
**A.** approximately 0.33 microns

**Q.** And the “Avg. Emitted Dose per Actuation” value [2]?
**A.** 836.16 µg

**Q.** What about the “Avg. FPF” value [2] of the same molecule?
**A.** 94.35 % of Emitted

**Q.** What about the “Dose Capture” value ([3]; cyclobenzaprine 2.0% in PG, target resistance 0.595 ohms, about 73 J, 1 actuation, listed as cyclobenzaprine) of the same molecule?
**A.** > 95%

**Q.** And the “Dose Capture” value ([3]; cyclobenzaprine 2.0% in PG, target resistance 0.610 ohms, 1 actuation)?
**A.** 109.93%

**Q.** And the average degradation [4]?
**A.** less than 0.3%

**Q.** Which results are given for Cc1nnc2n1-c1ccc(Cl)cc1C(c1ccccc1Cl)=NC2 [Triazolam, 8-chloro-6-(2-chlorophenyl)-1-methyl-4H-[1,2,4]triazolo[4,3-a][1,4]benzodiazepine]?
**A.** MMAD [1, 15]: 0.847 microns and 0.642^3 microns; Material Balance [1, 15]: 74.08% and 108.22^3%; Wall Losses [1, 15]: 15.51^3%; Throat Deposition ([1]; triazolam 0.1% in PG, target resistance 0.590 ohms, approximately 70 J, runs 1 and 2): 33.14% and 39.28^3%; Throat Deposition ([1]; triazolam 0.1% in PG, target resistance 0.590 ohms, approximately 70 J, runs 1 and 2, listed as triazolam): greater than 30%; MMAD [1, 16]: 0.414^3 microns; Material Balance [1, 16]: 98.50^3%; Throat Deposition [1, 16]: 3.66^3%; Wall Losses [1, 16]: 6.69^3%; MMAD [1, 17]: 0.378^3 microns; Material Balance [1, 17]: 104.22^3%; Throat Deposition [1, 17]: 2.96^3%; Wall Losses [1, 17]: 11.04^3%; MMAD [1, 18]: 0.511^3 microns and 0.431^3 microns and 0.483 microns and 0.444^3 microns and 0.446^3 microns; Material Balance [1, 18]: 102.10^3% and 96.32^3% and 107.02% and 91.60^3% and 101.09^3%; Throat Deposition [1, 18]: 2.43^3% and 1.35^3% and 2.87% and 2.47^3% and 1.97^3%; Throat Deposition ([1]; triazolam 0.1% in PG, target resistance 0.605 ohms, runs 5-9, listed as triazolam): less than 3%; average MMAD ([1]; triazolam 0.1% in PG, target resistance 0.605 ohms, approximately 90 J, runs 5-9): approximately 0.46 microns; Avg. Emitted Dose per Actuation [2]: 46.46 µg; Avg. FPF [2]: 86.16 % of Emitted; Dose Capture ([3]; triazolam 0.1% in PG, target resistance 0.605 ohms, about 90 J, runs 10-14, mean of 15): 90^2%; Dose Capture ([3]; triazolam 0.1% in PG, target resistance 0.605 ohms, about 90 J, runs 10-14, mean of 15, listed as triazolam): 90%; Dose Capture ([3]; triazolam 0.1% in PG, target resistance 0.610 ohms): 86%

**Q.** What does the source list for Cc1ccc(-c2nc3ccc(C)cn3c2CC(=O)N(C)C)cc1 [Zolpidem, N,N,6-Trimethyl-2-(4-methylphenyl)-imidazo[1,2-a]pyridine-3-acetamide]?
**A.** MMAD [1, 19]: 0.464 microns; Material Balance [1, 19]: 64.51%; Throat Deposition [1, 19]: 5.36%; Wall Losses [1, 19]: 1.68%; MMAD [1, 20]: 0.481 microns and 0.459 microns and 0.420 microns and 0.421 microns and 0.404 microns and 0.431 microns; Material Balance [1, 20]: 100.06% and 90.77% and 97.74% and 95.83% and 101.56% and 93.04%; Throat Deposition [1, 20]: 3.97% and 0.12% and 0.62% and 1.27% and 0.21% and 1.95%; Wall Losses [1, 20]: 6.18% and 2.67% and 3.55% and 3.85% and 0.90% and 1.35%; average MMAD ([1]; zolpidem 0.2% in PG, target resistance 0.600 ohms, approximately 75 J, runs 5-8): approximately 0.45 microns; Avg. Emitted Dose per Actuation [2]: 92.55 µg; Avg. FPF [2]: 93.25 % of Emitted; Percent Degradation [5]: 0.26% and 0.02% and 0.00% and 0.03% and 0.16%; average degradation [5]: less than 0.1%
